Results reported in the supplement of paper PMC4862054.

Assays:
Test in all cases: normalised response (% of control), CellTiter-Glo; higher = more viable cells (100 = DMSO, 0 = benzethonium chloride kill control)
Details in all cases: incubation time: 72 h
[1] = tested on: DU-4475
Method in brief: (§1)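 Plates were normalised with 0.1 % DMSO as 100 and a positive kill control as 0. Breast cancer cell lines in 20 µl suspension had been seeded into 384-well plates with compound at 5 concentrations in 10-fold steps over a compound-specific 10,000-fold range, incubated 72 h, and read for CellTox Green fluorescence (485/520 nm) followed by CellTiter-Glo luminescence. Each value is the normalised signal at a single concentration.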

[2] = tested on: MDA-MB-453
Method in brief: as §1

[3] = tested on: MCF-10A
Method in brief: as §1

[4] = tested on: HDQ-P1
Method in brief: as §1

[5] = tested on: SK-BR-3
Method in brief: as §1

[6] = tested on: HCC1599
Method in brief: as §1

[7] = tested on: CAL-120
Method in brief: as §1

[8] = tested on: BT-474
Method in brief: as §1

[9] = tested on: MDA-MB-436
Method in brief: as §1

[10] = tested on: BT-549
Method in brief: as §1

[11] = tested on: CAL-51
Method in brief: as §1

[12] = tested on: CAL-148
Method in brief: as §1

[13] = tested on: HCC1937
Method in brief: as §1

[14] = tested on: MDA-MB-231
Method in brief: as §1

[15] = tested on: DU-4475; remark: listed apart in the source
Method in brief: as §1

[16] = tested on: MDA-MB-453; remark: listed apart in the source
Method in brief: as §1

[17] = tested on: MCF-10A; remark: listed apart in the source
Method in brief: as §1

[18] = tested on: HDQ-P1; remark: listed apart in the source
Method in brief: as §1

[19] = tested on: SK-BR-3; remark: listed apart in the source
Method in brief: as §1

[20] = tested on: Hs578T
Method in brief: as §1

[21] = tested on: HCC1599; remark: listed apart in the source
Method in brief: as §1

[22] = tested on: CAL-120; remark: listed apart in the source
Method in brief: as §1

[23] = tested on: BT-474; remark: listed apart in the source
Method in brief: as §1

[24] = tested on: MDA-MB-436; remark: listed apart in the source
Method in brief: as §1

[25] = tested on: CAL-85-1
Method in brief: as §1

[26] = tested on: BT-549; remark: listed apart in the source
Method in brief: as §1

[27] = tested on: HCC1143
Method in brief: as §1

[28] = tested on: CAL-51; remark: listed apart in the source
Method in brief: as §1

[29] = tested on: CAL-148; remark: listed apart in the source
Method in brief: as §1

[30] = tested on: MDA-MB-468
Method in brief: as §1

[31] = tested on: MFM-223
Method in brief: as §1

SMILES | normalised response [1] | normalised response [2] | normalised response [3] | normalised response [4] | normalised response [5] | normalised response [6] | normalised response [7] | normalised response [8] | normalised response [9] | normalised response [10] | normalised response [11] | normalised response [12] | normalised response [13] | normalised response [14] | normalised response [15] | normalised response [16] | normalised response [17] | normalised response [18] | normalised response [19] | normalised response [20] | normalised response [21] | normalised response [22] | normalised response [23] | normalised response [24] | normalised response [25] | normalised response [26] | normalised response [27] | normalised response [28] | normalised response [29] | normalised response [30] | normalised response [31]
Cc1cc(Nc2nc(N[C@@H](C)c3ncc(F)cn3)ncc2Cl)[nH]n1 [AZD1480] (1000 nM) | 81.7% | 72.4% | 89.5% | 93.6% | 90.5% | 104% | 70% | 82.5% | 91.6% | 82.1% | 110% | 87.3% | – | – | – | – | – | – | – | – | – | – | – | – | – | – | – | – | – | – | –
CO[C@@H]1[C@H](N(C)C(=O)c2ccccc2)C[C@H]2O[C@]1(C)n1c3ccccc3c3c4c(c5c6ccccc6n2c5c31)C(=O)NC4 [Midostaurin] (10000 nM) | 34.1% | 110% | 24.9% | 54.4% | 45.2% | 102% | 46.2% | 41.7% | 68.8% | 4.02% | 11.5% | 88.1% | – | – | – | – | – | – | – | – | – | – | – | – | – | – | – | – | – | – | –
COc1ccc(S(=O)(=O)Nc2cccnc2Nc2ccc(O)cc2)cc1 [ABT-751] (10000 nM) | 43.6% | 50.9% | 59.8% | 70.1% | 12.3% | 16.5% | 61.1% | 53.8% | 26.8% | 40.3% | 25.2% | 41.2% | – | – | – | – | – | – | – | – | – | – | – | – | – | – | – | – | – | – | –
CCNC(=O)CCC/C=C\C[C@@H]1[C@@H](/C=C/[C@@H](O)CCc2ccccc2)[C@H](O)C[C@@H]1O [Bimatoprost] (5500 nM) | 96.7% | 91.2% | 90.3% | 91.7% | 83.8% | 89.5% | 95.8% | 95% | 104% | 102% | 160% | 88.3% | – | – | – | – | – | – | – | – | – | – | – | – | – | – | – | – | – | – | –
CC(C)(C)NC(=O)[C@H]1CC[C@H]2[C@@H]3CC[C@H]4NC(=O)C=C[C@]4(C)[C@H]3CC[C@]12C [Finasteride] (10000 nM) | 103% | 93.4% | 110% | 95.7% | 94.4% | 97% | 99.7% | 96.5% | 108% | 91.7% | 91.7% | 105% | – | – | – | – | – | – | – | – | – | – | – | – | – | – | – | – | – | – | –
CO[C@@]12[C@H](COC(N)=O)C3=C(C(=O)C(C)=C(N)C3=O)N1C[C@@H]1N[C@@H]12 [Mitomycin C] (10000 nM) | 69% | 85.8% | 73% | 84.1% | 58.4% | 57.4% | 88.1% | 69.5% | 41.7% | 15% | 5.75% | 51% | – | – | – | – | – | – | – | – | – | – | – | – | – | – | – | – | – | – | –
CC(=O)[C@]1(O)Cc2c(O)c3c(c(O)c2[C@@H](O[C@H]2C[C@H](N)[C@H](O)[C@H](C)O2)C1)C(=O)c1ccccc1C3=O [Idarubicin] (1000 nM) | 0.36% | 31.2% | 27.3% | 39% | 7.62% | 7.7% | 30% | 16.6% | 20.6% | 6.26% | 0.98% | 0.6% | – | – | – | – | – | – | – | – | – | – | – | – | – | – | – | – | – | – | –
Nc1ccn([C@@H]2O[C@H](CO)[C@@H](O)C2(F)F)c(=O)n1 [Gemcitabine] (1000 nM) | 78.5% | 74.5% | 65.8% | 82.8% | 42.7% | 41.4% | 73% | 74.2% | 30.7% | 44.7% | 34% | 51% | – | – | – | – | – | – | – | – | – | – | – | – | – | – | – | – | – | – | –
CO[C@@H]1[C@H](N(C)C(=O)c2ccccc2)C[C@H]2O[C@]1(C)n1c3ccccc3c3c4c(c5c6ccccc6n2c5c31)C(=O)NC4 [Midostaurin] (1000 nM) | – | – | – | – | – | – | – | – | – | – | – | – | 63.7% | 50.3% | 51.5% | 120% | 27.8% | 65.1% | 61.4% | 26.1% | 94.5% | 54% | 52.1% | 77.5% | 85.8% | 32.6% | 55.9% | 20.8% | 80.5% | 26.9% | 75.8%
C=CCn1c(=O)c2cnc(Nc3ccc(N4CCN(C)CC4)cc3)nc2n1-c1cccc(C(C)(C)O)n1 [MK1775] (1000 nM) | – | – | – | – | – | – | – | – | – | – | – | – | 39.6% | 23.6% | 65.6% | 50.1% | 47.6% | 35.9% | 14.4% | 30% | 7.3% | 47.3% | 33.3% | 30.8% | 18.7% | 21.2% | 43.2% | 18.5% | 12.2% | 43.4% | 41.2%
CCNC(=O)CCC/C=C\C[C@@H]1[C@@H](/C=C/[C@@H](O)CCc2ccccc2)[C@H](O)C[C@@H]1O [Bimatoprost] (550 nM) | – | – | – | – | – | – | – | – | – | – | – | – | 94.5% | 97.1% | 98.3% | 93.2% | 102% | 95.4% | 88.7% | 93% | 105% | 97.1% | 96.7% | 108% | 96.3% | 104% | 92.5% | 102% | 93.6% | 95.2% | 90.3%
CNC(=O)c1ccccc1Sc1ccc2c(/C=C/c3ccccn3)n[nH]c2c1 [Axitinib] (1000 nM) | – | – | – | – | – | – | – | – | – | – | – | – | 88.6% | 111% | 102% | 87.9% | 95% | 96.8% | 90.5% | 93.8% | 82% | 95.3% | 102% | 97.8% | 117% | 103% | 94.6% | 59.4% | 103% | 83.9% | 59.8%
CO[C@@]12[C@H](COC(N)=O)C3=C(C(=O)C(C)=C(N)C3=O)N1C[C@@H]1N[C@@H]12 [Mitomycin C] (1000 nM) | – | – | – | – | – | – | – | – | – | – | – | – | 95.2% | 97.4% | 96.9% | 97.9% | 93% | 97% | 96.7% | 102% | 84.2% | 94.1% | 90.2% | 88.3% | 95.6% | 65.7% | 99.4% | 60.2% | 90.9% | 86% | 90.1%
CC(O)(CS(=O)(=O)c1ccc(F)cc1)C(=O)Nc1ccc(C#N)c(C(F)(F)F)c1 (configuration not stated) [Bicalutamide] (1000 nM) | – | – | – | – | – | – | – | – | – | – | – | – | 100% | 112% | 99% | 95% | 110% | 108% | 109% | 95.6% | 120% | 108% | 110% | 107% | 107% | 97.6% | 101% | 101% | 102% | 110% | 102%
COc1ccc(S(=O)(=O)Nc2cccnc2Nc2ccc(O)cc2)cc1 [ABT-751] (1000 nM) | – | – | – | – | – | – | – | – | – | – | – | – | 77.8% | 63.6% | 81.6% | 54.8% | 84.4% | 71.1% | 36.1% | 45.6% | 43.5% | 60.9% | 63.8% | 38.7% | 34.7% | 48.9% | 67.3% | 104% | 87.2% | 36.9% | 69.3%
CC1(C)CCC(c2ccc(Cl)cc2)=C(CN2CCN(c3ccc(C(=O)NS(=O)(=O)c4ccc(N[C@H](CCN5CCOCC5)CSc5ccccc5)c(S(=O)(=O)C(F)(F)F)c4)cc3)CC2)C1 [Navitoclax] (1000 nM) | – | – | – | – | – | – | – | – | – | – | – | – | 83.4% | 49.2% | 85.9% | 80.9% | 97.8% | 73% | 85.5% | 93.1% | 97.3% | 67.8% | 58.1% | 95.3% | 90% | 92.5% | 82.9% | 90.8% | 78.5% | 82.8% | 85.8%
C/C(=C\c1csc(C)n1)[C@@H]1C[C@@H]2O[C@]2(C)CCC[C@H](C)[C@H](O)[C@@H](C)C(=O)C(C)(C)[C@@H](O)CC(=O)N1 [Ixabepilone] (100 nM) | – | – | – | – | – | – | – | – | – | – | – | – | 102% | 96.9% | 102% | 109% | 110% | 100% | 106% | 104% | 103% | 95.8% | 103% | 101% | 99.5% | 23.6% | 97.5% | 30.6% | 97.8% | 29.1% | 105%
